Data reported in the supplement of paper PMC10307832.

compound: COC1=C(C=C(C=C1)C2=CC3=NC=CN3C(=N2)NC4=C(C=CC=N4)C(=O)N)OC [BAY61-3606] + Cc1nc(Nc2ncc(C(=O)Nc3c(C)cccc3Cl)s2)cc(N2CCN(CCO)CC2)n1 [Dasatinib] (partner 0.075 µM); experiment: relative viability (nuclei count vs DMSO), 5 days (fraction); higher = more cells survive; details: first compound 2 µM
How it was run: (§1)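 Relative viability equals treated-well nuclei counts divided by vehicle-well nuclei counts. Counts came from 4× images of lung cancer cell lines grown in 1536-well plates for 5 days after pin-tool dosing on the day after seeding. Dosing used one drug alone or a fixed anchor-drug dose plus five library-drug doses (not always all listed) in √10 steps, and values are medians of duplicate plates.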

| Cell Line | relative viability |
| --- | --- |
| NCI-H1944 | 0.193 |
| EKVX | 0.297 |

compound: COC1=C(C=C(C=C1)C2=CC3=NC=CN3C(=N2)NC4=C(C=CC=N4)C(=O)N)OC [BAY61-3606] + O=C(CCCCCCC(=O)Nc1ccccc1)NO [Vorinostat] (partner 1 µM); experiment: as above; details: first compound 0.02 µM
How it was run: as §1

| Cell Line | relative viability |
| --- | --- |
| BEN | 0.545 |
| HARA | 0.547 |
| SW 900 | 0.457 |
| HCC-827 | 0.858 |
| NCI-H520 | 0.768 |
| LOU-NH91 | 1.03 |
| NCI-H2023 | 0.856 |
| A-427 | 0.991 |
| NCI-H647 | 0.598 |
| PC-3 [JPC-3] | 0.849 |
| NCI-H1755 | 0.871 |
| NCI-H650 | 0.466 |
| NCI-H3122 | 1.01 |
| NCI-H441 | 0.997 |
| NCI-H1395 | 0.736 |
| 201T | 1.02 |

| Cell Line | relative viability |
| --- | --- |
| NCI-H1975 | 0.849 |
| NCI-H2405 | 1.17 |
| NCI-H1355 | 0.722 |
| NCI-H838 | 0.743 |
| CAL-12T | 0.827 |
| NCI-H1666 | 1.02 |
| EPLC-272H | 0.402 |
| NCI-H2347 | 0.721 |
| NCI-H1915 | 0.515 |
| NCI-H1437 | 0.919 |
| NCI-H460 | 0.786 |
| NCI-H2085 | 0.885 |
| HCC-15 | 0.976 |
| NCI-H1944 | 0.65 |
| EKVX | 0.84 |

same assay, conditions: first compound 0.06325 µM

| Cell Line | relative viability |
| --- | --- |
| BEN | 0.577 |
| HARA | 0.47 |
| HCC-827 | 0.828 |
| NCI-H520 | 0.861 |
| LOU-NH91 | 0.796 |
| NCI-H2023 | 0.671 |
| A-427 | 0.869 |
| NCI-H647 | 0.566 |
| PC-3 [JPC-3] | 0.668 |
| NCI-H1755 | 0.676 |
| NCI-H650 | 0.414 |
| NCI-H3122 | 1.03 |
| NCI-H441 | 0.88 |
| NCI-H1395 | 0.705 |
| 201T | 0.962 |
| NCI-H1975 | 0.734 |

| Cell Line | relative viability |
| --- | --- |
| HOP-62 | 0.544 |
| NCI-H2405 | 1.02 |
| NCI-H1355 | 0.617 |
| NCI-H838 | 0.74 |
| CAL-12T | 0.859 |
| NCI-H1666 | 1.14 |
| EPLC-272H | 0.401 |
| NCI-H2347 | 0.65 |
| NCI-H1915 | 0.528 |
| NCI-H1437 | 0.915 |
| NCI-H460 | 0.862 |
| NCI-H2085 | 0.766 |
| HCC-15 | 0.915 |
| NCI-H1944 | 0.538 |
| EKVX | 0.685 |

same assay, conditions: first compound 0.2 µM

| Cell Line | relative viability |
| --- | --- |
| BEN | 0.573 |
| HARA | 0.415 |
| HCC-827 | 1.04 |
| NCI-H520 | 0.624 |
| LOU-NH91 | 0.871 |
| NCI-H2023 | 0.638 |
| A-427 | 0.876 |
| NCI-H647 | 0.441 |
| PC-3 [JPC-3] | 1.04 |
| NCI-H1755 | 0.764 |
| NCI-H650 | 0.428 |
| NCI-H3122 | 0.893 |
| NCI-H441 | 0.916 |
| NCI-H1395 | 0.595 |
| 201T | 1.05 |
